Experimental data published in patent EP0068680A1, “Antibiotics” (BEECHAM GROUP PLC, priority 1981, dated 1983).
≈ marks a conversion by molar mass, not a printed value. Read-outs that look alike come from different tables or passages of the source.

Assays:
[1] = test system: M. suipneumoniae JF 435; assay: MIC against Mycoplasma in vitro (agar); type: cell-based; conditions: Friis broth solidified with 0.9% agarose, 6 days at 37°C
[2] = test system: M. suipneumoniae HK(2); assay: MIC against Mycoplasma in vitro (agar); type: cell-based; conditions: Friis broth solidified with 0.9% agarose, 6 days at 37°C
[3] = test system: M. suipneumoniae Str. 11; assay: MIC against Mycoplasma in vitro (agar); type: cell-based; conditions: Friis broth solidified with 0.9% agarose, 6 days at 37°C
[4] = test system: M. suipneumoniae MS 16; assay: MIC against Mycoplasma in vitro (agar); type: cell-based; conditions: Friis broth solidified with 0.9% agarose, 6 days at 37°C
[5] = test system: M. suipneumoniae PW/C/210; assay: MIC against Mycoplasma in vitro (agar); type: cell-based; conditions: Friis broth solidified with 0.9% agarose, 6 days at 37°C
[6] = test system: M. suipneumoniae LABER; assay: MIC against Mycoplasma in vitro (agar); type: cell-based; conditions: Friis broth solidified with 0.9% agarose, 6 days at 37°C
[7] = test system: M. suipneumoniae TAM 6N; assay: MIC against Mycoplasma in vitro (agar); type: cell-based; conditions: Friis broth solidified with 0.9% agarose, 6 days at 37°C
[8] = test system: M. suipneumoniae ATCC 25095; assay: MIC against Mycoplasma in vitro (agar); type: cell-based; conditions: Friis broth solidified with 0.9% agarose, 6 days at 37°C
[9] = test system: M. suipneumoniae NCTC 10110; assay: MIC against Mycoplasma in vitro (agar); type: cell-based; conditions: Friis broth solidified with 0.9% agarose, 6 days at 37°C
[10] = test system: M. hyorhinis ATCC 23234; assay: MIC against Mycoplasma in vitro (agar); type: cell-based; conditions: Friis broth solidified with 0.9% agarose, 6 days at 37°C
[11] = test system: M. hyorhinis ATCC 25021; assay: MIC against Mycoplasma in vitro (agar); type: cell-based; conditions: Friis broth solidified with 0.9% agarose, 6 days at 37°C
[12] = test system: M. hyosynoviae ATCC 25591; assay: MIC against Mycoplasma in vitro (agar); type: cell-based; conditions: Friis broth solidified with 0.9% agarose, 6 days at 37°C
[13] = test system: M. bovis NCTC 10131; assay: microbe, parasite or virus in culture; type: cell-based
[14] = test system: M. bovigenitalium ATCC 14173; assay: MIC against Mycoplasma in vitro (agar); type: cell-based; conditions: Friis broth solidified with 0.9% agarose, 6 days at 37°C
[15] = test system: M. dispar NCTC 10125; assay: MIC against Mycoplasma in vitro (agar); type: cell-based; conditions: Friis broth solidified with 0.9% agarose, 6 days at 37°C
[16] = test system: E. coli NCTC 10418; assay: MIC against Human Bacteria in vitro (agar dilution); type: cell-based; conditions: 18 hours at 37°C
[17] = test system: E. coli ESS; assay: as above; type: cell-based; conditions: agar with 5% chocolated horse blood, 18 hours at 37°C
[18] = test system: P. mirabilis 889; assay: as above; type: cell-based; conditions: agar with 5% chocolated horse blood, 18 hours at 37°C
[19] = test system: K. aerogenes A; assay: as above; type: cell-based; conditions: agar with 5% chocolated horse blood, 18 hours at 37°C
[20] = test system: Ps. aeruginosa NCTC 10662; assay: as above; type: cell-based; conditions: 18 hours at 37°C
[21] = test system: Haemophilus influenzae Q1; assay: as above; type: cell-based; conditions: agar with 5% chocolated horse blood, 18 hours at 37°C
[22] = test system: Neisseria catarrhalis 1502; assay: as above; type: cell-based; conditions: agar with 5% chocolated horse blood, 18 hours at 37°C
[23] = test system: Bacillus subtilis 6633; assay: as above; type: cell-based; conditions: agar with 5% chocolated horse blood, 18 hours at 37°C
[24] = test system: Corynebacterium xerosis 9755; assay: as above; type: cell-based; conditions: agar with 5% chocolated horse blood, 18 hours at 37°C
[25] = test system: Sarcina lutea 8340; assay: as above; type: cell-based; conditions: agar with 5% chocolated horse blood, 18 hours at 37°C
[26] = test system: Staph. aureus Oxford; assay: as above; type: cell-based; conditions: agar with 5% chocolated horse blood, 18 hours at 37°C
[27] = test system: Staph. aureus Russell; assay: as above; type: cell-based; conditions: agar with 5% chocolated horse blood, 18 hours at 37°C
[28] = test system: Strep. faecalis I; assay: as above; type: cell-based; conditions: agar with 5% chocolated horse blood, 18 hours at 37°C
[29] = test system: Strep. pyogenes B2788; assay: as above; type: cell-based; conditions: agar with 5% chocolated horse blood, 18 hours at 37°C
[30] = test system: Strep. pneumoniae CN33; assay: as above; type: cell-based; conditions: agar with 5% chocolated horse blood, 18 hours at 37°C
[31] = test system: E. coli NCTC 10418; assay: MIC against Veterinary Bacteria in vitro (agar dilution)
Method: (§1) The activity of the compounds of the Examples against various veterinarily important bacteria, was assayed in vitro using two-fold serial dilutions in Diagnostic Sensitivity Test Agar inoculated with 10^4 organisms.

[32] = test system: S. typhimurium S18; assay: as above
Method: as §1

[33] = test system: Bord. bronchiseptica B08; assay: as above
Method: as §1

[34] = test system: Bord. bronchiseptica B09; assay: as above
Method: as §1

[35] = test system: Past. multocida PA1; assay: as above
Method: as §1

[36] = test system: Past. multocida PA2; assay: as above
Method: as §1

[37] = test system: Erysipelothrix rhusiopathiae NCTC 8163; assay: as above
Method: as §1

[38] = test system: Staph. aureus B4 (pen. resistant); assay: as above
Method: as §1

[39] = test system: Staph. aureus Oxford; assay: as above
Method: as §1

[40] = test system: Strep. suis (group D) SPS11; assay: as above
Method: as §1

[41] = test system: Strep. dysgalactiae SPD1; assay: as above
Method: as §1

[42] = test system: Strep. agalactiae SPA1; assay: as above
Method: as §1

[43] = Mesomycoplasma hyopneumoniae, 144 h, read-out: MIC
[44] = Staphylococcus aureus, read-out: MIC
[45] = agar with 5% chocolated horse blood

## CC(=CC(=O)OCCCCC=CCCC(=O)O)CC1OCC(CC2OC2C(C)C(C)O)C(O)C1O (stereo not drawn) [Example 1, pseudomonic acid D]
[1]; Mesomycoplasma hyopneumoniae, JF435, 144 h, read-out: MIC
  MIC: 5 µg/mL (≈ 10 µM)
[2]; [43]
  MIC: 5 µg/mL (≈ 10 µM)
[3]; [43]
  MIC: 1 µg/mL (≈ 2.01 µM)
[4]; Mesomycoplasma hyopneumoniae, MS16, 144 h, read-out: MIC
  MIC: 2.5 µg/mL (≈ 5.01 µM)
[5]; [43]
  MIC: 1 µg/mL (≈ 2.01 µM)
[6]; [43]
  MIC: 2.5 µg/mL (≈ 5.01 µM)
[7]; Mesomycoplasma hyopneumoniae, TAM6N, 144 h, read-out: MIC
  MIC: 5 µg/mL (≈ 10 µM)
[8]; Mesomycoplasma hyopneumoniae, ATCC25095, 144 h, read-out: MIC
  MIC: 1 µg/mL (≈ 2.01 µM)
[9]; Mesomycoplasma hyopneumoniae, NCTC10110, 144 h, read-out: MIC
  MIC: 5 µg/mL (≈ 10 µM)
[10]; Mesomycoplasma hyorhinis, ATCC23234, 144 h, read-out: MIC
  MIC: 1 µg/mL (≈ 2.01 µM)
[11]; Mesomycoplasma hyorhinis, ATCC25021, 144 h, read-out: MIC
  MIC: 1 µg/mL (≈ 2.01 µM)
[12]; 144 h, read-out: MIC
  MIC: 0.5 µg/mL (≈ 1 µM)
[13]; NCTC10131, 144 h
  MIC: 0.05 µg/mL (≈ 0.1 µM)
[14]; 144 h, read-out: MIC
  MIC: 0.1 µg/mL (≈ 0.201 µM)
[15]; 144 h, read-out: MIC
  MIC: 2.5 µg/mL (≈ 5.01 µM)
[16]; Escherichia coli, NCTC10418, agar with 5% chocolated horse blood, read-out: MIC
  MIC: > 25 µg/mL
[17]; Escherichia coli, read-out: MIC
  MIC: 1 µg/mL (≈ 2.01 µM)
[18]; Proteus mirabilis, read-out: MIC
  MIC: > 25 µg/mL
[19]; Klebsiella aerogenes, read-out: MIC
  MIC: > 25 µg/mL
[20]; Pseudomonas aeruginosa, NCTC10662, agar with 5% chocolated horse blood, read-out: MIC
  MIC: > 25 µg/mL
[21]; read-out: MIC
  MIC: 0.25 µg/mL (≈ 0.501 µM)
[22]; read-out: MIC
  MIC: 0.5 µg/mL (≈ 1 µM)
[23]; read-out: MIC
  MIC: 1 µg/mL (≈ 2.01 µM)
[24]; read-out: MIC
  MIC: > 25 µg/mL
[25]; Micrococcus luteus, read-out: MIC
  MIC: > 25 µg/mL
[26]; [44]
  MIC: 1 µg/mL (≈ 2.01 µM)
[27]; [44]
  MIC: 1 µg/mL (≈ 2.01 µM)
[28]; Enterococcus faecalis, read-out: MIC
  MIC: > 25 µg/mL
[29]; Streptococcus pyogenes, read-out: MIC
  MIC: 0.5 µg/mL (≈ 1 µM)
[30]; Streptococcus pneumoniae, read-out: MIC
  MIC: 0.25 µg/mL (≈ 0.501 µM)
[31]; Escherichia coli, NCTC10418, 18 h
  MIC: > 20 µg/mL
[32]; Salmonella enterica, TYPHIMURIUM, 18 h
  MIC: > 20 µg/mL
[33]; Bordetella bronchiseptica, B08, 18 h
  MIC: 10 µg/mL (≈ 20.1 µM)
[34]; Bordetella bronchiseptica, B09, 18 h
  MIC: 5 µg/mL (≈ 10 µM)
[35]; Pasteurella multocida, PA1, 18 h
  MIC: 0.156 µg/mL (≈ 0.313 µM)
[36]; Pasteurella multocida, PA2, 18 h
  MIC: < 0.019 µg/mL
[37]; Erysipelothrix rhusiopathiae, NCTC8163, 18 h
  MIC: 10 µg/mL (≈ 20.1 µM)
[38]; Staphylococcus aureus, 18 h
  MIC: 0.312 µg/mL (≈ 0.626 µM)
[39]; Staphylococcus aureus, 18 h
  MIC: 0.312 µg/mL (≈ 0.626 µM)
[40]; Streptococcus suis, 18 h
  MIC: 1.25 µg/mL (≈ 2.51 µM)
[41]; Streptococcus dysgalactiae, SPD1, 18 h
  MIC: 0.156 µg/mL (≈ 0.313 µM)
[42]; Streptococcus agalactiae, SPA1, 18 h
  MIC: 0.625 µg/mL (≈ 1.25 µM)

## Methyl pseudomonate D [Example 2]
[1]
  MIC: 5.0 µg/mL
[2]
  MIC: 5.0 µg/mL
[3]
  MIC: 2.5 µg/mL
[4]
  MIC: 2.5 µg/mL
[5]
  MIC: 2.5 µg/mL
[6]
  MIC: 2.5 µg/mL
[7]
  MIC: 10 µg/mL
[8]
  MIC: 2.5 µg/mL
[9]
  MIC: 5.0 µg/mL
[10]
  MIC: 1.0 µg/mL
[11]
  MIC: 1.0 µg/mL
[12]
  MIC: 0.5 µg/mL
[13]; M. bovis NCTC 10131, Friis broth solidified with 0.9% agarose, 6 days at 37°C
  MIC: 0.05 µg/mL
[14]
  MIC: 0.1 µg/mL
[15]
  MIC: 1.0 µg/mL
[16]; [45]
  MIC: >100 µg/mL
[17]
  MIC: 1.0 µg/mL
[18]
  MIC: >100 µg/mL
[19]
  MIC: >100 µg/mL
[20]; [45]
  MIC: >100 µg/mL
[21]
  MIC: 0.5 µg/mL
[22]
  MIC: 0.5 µg/mL
[23]
  MIC: 0.5 µg/mL
[24]
  MIC: >100 µg/mL
[25]
  MIC: >100 µg/mL
[26]
  MIC: 0.5 µg/mL
[27]
  MIC: 2.5 µg/mL
[28]
  MIC: >100 µg/mL
[29]
  MIC: 2.5 µg/mL
[30]
  MIC: 2.5 µg/mL
[31]; E. coli NCTC 10418, Diagnostic Sensitivity Test Agar, 18 hours at 37°C
  MIC: 40 µg/mL
[32]; S. typhimurium S18, Diagnostic Sensitivity Test Agar, 18 hours at 37°C
  MIC: 80 µg/mL
[33]; Bord. bronchiseptica B08, Diagnostic Sensitivity Test Agar, 18 hours at 37°C
  MIC: 40 µg/mL
[34]; Bord. bronchiseptica B09, Diagnostic Sensitivity Test Agar, 18 hours at 37°C
  MIC: 10 µg/mL
[35]; Past. multocida PA1, Diagnostic Sensitivity Test Agar, 18 hours at 37°C
  MIC: 10 µg/mL
[36]; Past. multocida PA2, Diagnostic Sensitivity Test Agar, 18 hours at 37°C
  MIC: 2.5 µg/mL
[37]; Erysipelothrix rhusiopathiae NCTC 8163, Diagnostic Sensitivity Test Agar, 18 hours at 37°C
  MIC: 20 µg/mL
[38]; Staph. aureus B4 (pen. resistant), Diagnostic Sensitivity Test Agar, 18 hours at 37°C
  MIC: 80 µg/mL
[39]; Staph. aureus Oxford, Diagnostic Sensitivity Test Agar, 18 hours at 37°C
  MIC: 0.625 µg/mL
[40]; Strep. suis (group D) SPS11, Diagnostic Sensitivity Test Agar, 18 hours at 37°C
  MIC: 0.625 µg/mL
[41]; Strep. dysgalactiae SPD1, Diagnostic Sensitivity Test Agar, 18 hours at 37°C
  MIC: 0.156 µg/mL
[42]; Strep. agalactiae SPA1, Diagnostic Sensitivity Test Agar, 18 hours at 37°C
  MIC: 0.312 µg/mL
